Assay results taken from the NIST ThermoML archive (doi:10.1021/acs.jced.5b01058).

Conditions: Liquid, Ebulliometric method (Recirculating still)

CCCCCOC=O [pentyl methanoate]
Conditions	vapor or sublimation pressure [kPa]
370.04 K	33.67
374.41 K	39.15
377.87 K	44.06
381.35 K	49.42
385.08 K	55.79
387.4 K	60
387.46 K	60
387.67 K	60.5
391.65 K	68.46
394.01 K	73.5
396.89 K	80.16
399.55 K	86.56
402.19 K	93.45
405.12 K	101.3

CCCCCCCC [octane]
Conditions	vapor or sublimation pressure [kPa]
380.76 K	60
380.78 K	60
380.82 K	60
380.84 K	60
380.85 K	60
380.87 K	60
380.94 K	60

CCC(C)=O [butanone]
Conditions	vapor or sublimation pressure [kPa]
350.25 K	94

CCCCC(=O)OC [methyl pentanoate]
Conditions	vapor or sublimation pressure [kPa]
361.82 K	29.41
366.7 K	35.06
370.86 K	40.47
374.53 K	45.81
378.84 K	52.83
382.55 K	59.35
383.29 K	60
387.18 K	69.02
391.14 K	77.71
395.42 K	88.17
398.03 K	95.08
400.07 K	100.4
400.48 K	101.3

CCCCOC(C)=O [butyl ethanoate]
Conditions	vapor or sublimation pressure [kPa]
361.85 K	29.92
364.47 K	32.95
370.9 K	41.42
373.32 K	45.02
380.1 K	56.43
381.99 K	60
382.01 K	60
382.08 K	60.15
388.06 K	72.71
391.2 K	80.09
394.58 K	88.69
398.35 K	99.03
399.09 K	101.3

CCCOC(=O)CC [propyl propanoate]
Conditions	vapor or sublimation pressure [kPa]
361.75 K	33.58
367.3 K	40.92
371.88 K	47.9
373.82 K	51.21
378.75 K	60
379.07 K	60.83
383.56 K	70.32
386.81 K	77.9
390.13 K	86.38
392.74 K	93.37
395.51 K	101.3

CCCC(=O)OCC [ethyl butanoate]
Conditions	vapor or sublimation pressure [kPa]
361.56 K	35.41
365.24 K	40.41
371.33 K	50
373.83 K	54.4
376.28 K	58.98
377.21 K	60
377.23 K	60
379.65 K	65.75
384.82 K	77.2
387.65 K	84.14
390.23 K	90.84
393.63 K	100.4
393.78 K	101.3

CCCCCCC [heptane]
Conditions	vapor or sublimation pressure [kPa]
368.85 K	94
